Consider 25 compounds from patent publication US8394789B2, “(Dihydro)pyrrolo[2,1-α]isoquinolines” (MSD Oss B.V., priority 2008, dated 2013).

The target in the experiment is T1, human FSH receptor (Homo sapiens, UniProt P23945).
T1 construct: expressed in transfected cells
T1 sequence (P23945 18-695): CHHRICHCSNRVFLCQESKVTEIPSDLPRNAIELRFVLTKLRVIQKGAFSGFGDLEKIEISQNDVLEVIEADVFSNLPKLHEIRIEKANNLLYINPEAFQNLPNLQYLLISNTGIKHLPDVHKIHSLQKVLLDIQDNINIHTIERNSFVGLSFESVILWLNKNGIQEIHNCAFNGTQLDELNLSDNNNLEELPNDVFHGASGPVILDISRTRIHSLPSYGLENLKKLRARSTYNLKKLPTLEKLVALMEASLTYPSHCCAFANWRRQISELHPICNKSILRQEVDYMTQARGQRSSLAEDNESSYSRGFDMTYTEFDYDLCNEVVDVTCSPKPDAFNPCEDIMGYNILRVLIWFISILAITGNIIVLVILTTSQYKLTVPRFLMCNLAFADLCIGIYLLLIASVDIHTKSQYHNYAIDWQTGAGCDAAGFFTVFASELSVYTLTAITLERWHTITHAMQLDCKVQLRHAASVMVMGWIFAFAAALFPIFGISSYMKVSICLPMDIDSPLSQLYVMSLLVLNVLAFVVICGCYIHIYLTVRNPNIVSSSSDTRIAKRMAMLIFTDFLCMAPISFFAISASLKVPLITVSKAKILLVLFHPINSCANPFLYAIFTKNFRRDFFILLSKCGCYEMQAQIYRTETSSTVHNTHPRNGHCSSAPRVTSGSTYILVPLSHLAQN
The experiment is described as follows: hFSHRago (CHO luc): agonistic activity at the human FSH receptor expressed in CHO cells, CRE-luciferase reporter. Format: cell-based. The following applies: CHO cells stably transfected with human FSH receptor and CRE/luciferase reporter; 4 hours of incubation.
`COc1cc2c(cc1OC(C)C)-c1c(-c3cccs3)cc(C(=O)N3CCCN(C(=O)C4(O)CCC4)CC3)n1CC2` [Example 10, [4-(1-Hydroxy-cyclobutanecarbonyl)-[1,4]diazepan-1-yl]-(9-isopropoxy-8-methoxy-1-thiophen-2-yl-5,6-dihydro-pyrrolo[2,1-α]isoquinolin-3-yl)-methanone] displayed an EC50 of 1.4 nM. In turn, `COc1cc2c(cc1OC(C)C)-c1c(-c3cccs3)cc(C(=O)N3CCCN(C(=O)C4(OC)CCC4)CC3)n1CC2` [Example 11, (9-Isopropoxy-8-methoxy-1-thiophen-2-yl-5,6-dihydro-pyrrolo[2,1-α]isoquinolin-3-yl)-[4-(1-methoxy-cyclobutanecarbonyl)-[1,4]diazepan-1-yl]-methanone] registered a 50% effective concentration (EC50) of 5.4 nM.

On to `COc1cc2c(cc1OC(C)C)-c1c(-c3cccs3)cc(C(=O)N3CCCN(C(C)=O)CC3)n1CC2` [Example 12a], for which the EC50 was found to be 5.2 nM.

`COc1cc2c(cc1OC(C)C)-c1c(-c3cccs3)c(Cl)c(C(=O)N3CCCN(C(C)=O)CC3)n1CC2` [Example 12b, 1-[4-(2-Chloro-9-isopropoxy-8-methoxy-1-thiophen-2-yl-5,6-dihydro-pyrrolo[2,1-α]isoquinoline-3-carbonyl)-[1,4]diazepan-1-yl]-ethanone] showed an EC50 of 1.9 nM. `COc1cc2c(cc1OC(C)C)-c1c(-c3cccs3)cc(C(=O)N3CCNC(=O)CC3)n1CC2` [Example 13, 1-(9-Isopropoxy-8-methoxy-1-thiophen-2-yl-5,6-dihydro-pyrrolo[2,1-α]isoquinoline-3-carbonyl)-[1,4]diazepan-5-one] came in with a concentration giving a half-maximal response (EC50) of 106 nM. This EC50 is about 56-fold higher than that of the compound before.

As to `CCCCN1CCN(C(=O)c2cc(-c3cccs3)c3n2CCc2cc(OC)c(OC(C)C)cc2-3)CCC1=O` [Example 14a, 4-Butyl-1-(9-isopropoxy-8-methoxy-1-thiophen-2-yl-5,6-dihydro-pyrrolo[2,1-α]iso-quinoline-3-carbonyl)-[1,4]diazepan-5-one], the EC50 is 0.8 nM. For the compound `CCCCN1CCN(C(=O)c2cc(-c3cccs3)c3n2CCc2cc(OC)c(OCC(=O)OCC)cc2-3)CCC1=O` [Example 14c, [3-(4-Butyl-5-oxo-[1,4]diazepane-1-carbonyl)-8-methoxy-1-thiophen-2-yl-5,6-dihydro-pyrrolo[2,1-α]isoquinolin-9-yloxy]-acetic acid ethyl ester], the concentration for a half-maximal effect (EC50) amounted to 11 nM. This EC50 is about 14-fold higher than that of the compound before.

`CCCCN1CCN(C(=O)c2cc(-c3cccs3)c3n2CCc2cc(OC)c(OCC(C)(C)O)cc2-3)CCC1=O` [Example 14d, 4-Butyl-1-[9-(2-hydroxy-2-methyl-propoxy)-8-methoxy-1-thiophen-2-yl-5,6-dihydro-pyrrolo[2,1-α]isoquinoline-3-carbonyl]-[1,4]diazepan-5-one] displayed an EC50 of 1.5 nM. `COc1cc2c(cc1OC(C)C)-c1c(-c3cccs3)cc(C(=O)N3CC=CC3)n1CC2` [Example 15, (2,5-Dihydro-pyrrol-1-yl)-(9-isopropoxy-8-methoxy-1-thiophen-2-yl-5,6-dihydro-pyrrolo[2,1-α]isoquinolin-3-yl)-methanone] yielded a 50% effective concentration (EC50) of 249 nM. Against the preceding compound, the EC50 is about 170-fold higher. As to `COc1cc2c(cc1OC(C)C)-c1c(-c3cccs3)cc(C(=O)N3CCCN(S(=O)(=O)c4ccc(C)cc4)CCC3)n1CC2` [Example 17, (9-Isopropoxy-8-methoxy-1-thiophen-2-yl-5,6-dihydro-pyrrolo[2,1-α]isoquinolin-3-yl)-[5-(toluene-4-sulfonyl)-perhydro-1,5-diazocin-1-yl]-methanone], the half-maximal effective concentration (EC50) was 914 nM. The compound `COc1cc2c(cc1OC(C)C)-c1c(-c3cccs3)cc(C(=O)N3CC4CC(CN(C(C)=O)C4)C3)n1CC2` [Example 20, 1-[7-(9-isopopoxy-8-methoxy-1-thiophen-2-yl-5,6-dihydro-pyrrolo[2,1-α]isoquinoline-3-carbonyl)-3,7-diaza-bicyclo[3.3.1]non-3-yl]-ethanone] displayed an EC50 of 8.2 nM. Take `COc1cc2c(cc1OC(C)C)-c1c(-c3cccs3)cc(C(=O)N3CC4CC(CN(C(=O)CSC)C4)C3)n1CC2` [Example 21, 1-[7-(9-Isopropoxy-8-methoxy-1-thiophen-2-yl-5,6-dihydro-pyrrolo[2,1-α]isoquinoline-3-carbonyl)-3,7-diaza-bicyclo[3.3.1]non-3-yl]-2-methylsulfanyl-ethanone]: the EC50 was determined as 77.8 nM. Turning to `COc1cc2c(cc1OC(C)C)-c1c(-c3cccs3)cc(C(=O)N3CC4CC(C3)CN(C(=O)C3CCC3)C4)n1CC2` [Example 22, (7-Cyclobutanecarbonyl-3,7-diaza-bicyclo[3.3.1]non-3-yl)-(9-isopropoxy-8-methoxy-1-thiophen-2-yl-5,6-dihydro-pyrrolo[2,1-α]isoquinolin-3-yl)-methanone], a half-maximal effect (EC50) was put at 8.9 nM.

As to `COc1cc2c(cc1OC(C)C)-c1c(-c3cccs3)cc(C(=O)NC3C[C@@H]4CN(C(C)=O)C[C@@H]4C3)n1CC2` (stereo partly drawn) [Example 23, 9-Isopropoxy-8-methoxy-1-thiophen-2-yl-5,6-dihydro-pyrrolo[2,1-α]isoquinoline-3-carboxylic acid (2-acetyl-octahydro-cyclopenta[c]pyrrol-5(endo)-yl)-amide], the EC50 was determined as 787 nM. Compound `COc1cc2c(cc1OC(C)C)-c1c(-c3cccs3)cc(C(=O)N(C)C3C[C@@H]4CN(C(C)=O)C[C@@H]4C3)n1CC2` (stereo partly drawn) [Example 24, 9-Isopropoxy-8-methoxy-1-thiophen-2-yl-5,6-dihydro-pyrrolo[2,1-α]isoquinoline-3-carboxylic acid (2-acetyl-octahydro-cyclopenta[c]pyrrol-5(endo)-yl)-methyl-amide] gave an EC50 of 191 nM. Then `COc1cc2c(cc1OC(C)C)-c1c(-c3cccs3)cc(C(=O)N3C[C@H]4C[C@@H](N(C)C(C)=O)C[C@H]4C3)n1CC2` [Example 26, N-[2-(9-Isopropoxy-8-methoxy-1-thiophen-2-yl-5,6-dihydro-pyrrolo[2,1-α]isoquinoline-3-carbonyl)-octahydro-cyclopenta[c]pyrrol-5-yl]-N-methyl-acetamide], with 173 nM. In turn, `CCC1CCCN1C(=O)c1cc(-c2cccs2)c2n1CCc1cc(OC)c(OC(C)C)cc1-2` (stereo not drawn) [Example 27, (2-Ethyl-pyrrolidin-1-yl)-(9-isopropoxy-8-methoxy-1-thiophen-2-yl-5,6-dihydro-pyrrolo[2,1-α]isoquinolin-3-yl)-methanone] returned a concentration giving a half-maximal response (EC50) of 16.2 nM. In turn, `COc1cc2c(cc1OC(C)C)-c1c(-c3cccs3)cc(C(=O)N3CCCC3c3cccc(F)c3)n1CC2` (stereo not drawn) [Example 28, [2-(3-Fluoro-phenyl)-pyrrolidin-1-yl]-(9-isopropoxy-8-methoxy-1-thiophen-2-yl-5,6-dihydro-pyrrolo[2,1-α]isoquinolin-3-yl)-methanone] came in with an EC50 of 752 nM.

Compound `COc1cc2c(cc1OC(C)C)-c1c(-c3cccs3)cc(C(=O)N3CCCC3c3cccnc3)n1CC2` (stereo not drawn) [Example 29, (9-Isopropoxy-8-methoxy-1-thiophen-2-yl-5,6-dihydro-pyrrolo[2,1-α]isoquinolin-3-yl)-(2-pyridin-3-yl-pyrrolidin-1-yl)-methanone] returned an EC50 of 624 nM. Compound `COc1cc2c(cc1OC(C)C)-c1c(-c3cccs3)cc(C(=O)N(C)N(C)C)n1CC2` [Example 31, 9-Isopropoxy-8-methoxy-1-thiophen-2-yl-5,6-dihydro-pyrrolo[2,1-α]isoquinoline-3-carboxylic acid trimethylhydrazide] showed a concentration for a half-maximal effect (EC50) of 241 nM. Compared with the last compound, the EC50 is about 2.6-fold lower. In turn, `COc1cc2c(cc1OC(C)C)-c1c(-c3cccs3)cc(C(=O)N(C)N3CCCC3)n1CC2` [Example 32, 9-Isopropoxy-8-methoxy-1-thiophen-2-yl-5,6-dihydro-pyrrolo[2,1-α]isoquinoline-3-carboxylic acid methyl-pyrrolidin-1-yl-amide] had an EC50 of 55.2 nM. On to `COc1cc2c(cc1OC(C)C)-c1c(-c3cccs3)cc(C(=O)N[C@@H]3CCCN(C(=O)C4CCC4)C3)n1CC2` [Example 33c, 9-Isopropoxy-8-methoxy-1-thiophen-2-yl-5,6-dihydro-pyrrolo[2,1-α]isoquinoline-3-carboxylic acid ((R)-1-cyclobutanecarbonyl-piperidin-3-yl)-amide], for which a half-maximal effect (EC50) was put at 252 nM. As for `CCN(C(=O)c1cc(-c2cccs2)c2n1CCc1cc(OC)c(OC(C)C)cc1-2)[C@@H]1CCCN(C(=O)C2CCC2)C1` [Example 33d, 9-Isopropoxy-8-methoxy-1-thiophen-2-yl-5,6-dihydro-pyrrolo[2,1-α]isoquinoline-3-carboxylic acid ((R)-1-cyclobutanecarbonyl-piperidin-3-yl)-ethyl-amide], the concentration giving a half-maximal response (EC50) is 279 nM. For `COc1cc2c(cc1OC(C)C)-c1c(-c3cccs3)cc(C(=O)N[C@@H]3CCCN(C(C)=O)C3)n1CC2` [Example 34c, 9-Isopropoxy-8-methoxy-1-thiophen-2-yl-5,6-dihydro-pyrrolo[2,1-α]isoquinoline-3-carboxylic acid ((R)-1-acetyl-piperidin-3-yl)-amide], the EC50 stood at 251 nM. For `COc1cc2c(cc1OC(C)C)-c1c(-c3cccs3)cc(C(=O)N(C)[C@@H]3CCCN(C(C)=O)C3)n1CC2` [Example 34d, 9-Isopropoxy-8-methoxy-1-thiophen-2-yl-5,6-dihydro-pyrrolo[2,1-α]isoquinoline-3-carboxylic acid ((R)-1-acetyl-piperidin-3-yl)-methyl-amide], a half-maximal effect (EC50) was put at 496 nM. This EC50 is about 2-fold higher than that of the compound before.
